Measurements reported in patent publication US10919887B2, “Salts and solid forms of a monobactam antibiotic” (Novartis AG, priority 2015, dated 2021).
Converted amounts (≈) assume the structure as drawn.

How the values were obtained:
[1] = Stability testing of solid salts at 25° C. and 40° C., purity by HPLC; format: physicochemical; conditions: solid salt
Method: Salts of Compound X were prepared by adding a base (1.0 or 2.0 equiv.) to Compound X in water, and lyophilizing the solution. The solids thus obtained appear to be amorphous by XRPD. In this manner, formation of salts of Compound X were attempted with sodium hydroxide, (L)-lysine, (L)-arginine, calcium hydroxide, meglumine, and magnesium hydroxide.
Samples of the disodium salt and the di-(L)-arginine salt as solids were subjected to stability testing at 25° C. and 40° C. The sample of sodium salt was 97.2% pure by HPLC initially, and after 6 weeks at 25° C., it was still 96.2% pure. The same material held at 40° C. was 94.8% pure after 3 weeks, and 93.6% pure after 6 weeks. Significant impurities that appear or increase during the study appear at relative retention times (RRT) 0.34 and 1.11 (with Compound X defined as RRT=1).
The arginine salt was 97.3% pure by HPLC initially, and was 96.3% pure after 6 weeks at 25° C. At 40° C., its purity dropped to 95.1% after 3 weeks and 94.2% after 6 weeks. Significant impurities that appear or increase during this study appear at relative retention times (RRT) 1.09, 1.11 and 1.13 (with Compound X defined as RRT=1). The HPLC traces for the samples from these stability studies after 6 weeks at 25° C. and 40° C. respectively are shown in FIGS. 10 and 11. The lower trace in each Figure is a sample used to measure the limit of quantitation (LOQ); the next trace above that represents the sample of Compound X used for salt formation; the next trace above that one is for the arginine salt after 6 weeks; and the next (top) trace is for the sodium salt after 6 weeks.
HPLC Conditions for the stability studies (FIGS. 10 and 11):
Agilent 1290 system with UV detector at 260 nm
Acquity HSS T3 column, 100 mm×2.1 mm ID; 1.8 μm particle size (supplied by Waters)
• A: 0.05% TFA in water • B: 0.05% TFA in methanol Flow rate: 0.45 mL/min Gradient (A/B ratio): 97:3 for 8 minutes; 75:25 for 3 minutes; 0:100 for 1 minute

[2] = Stability of Compound X and its salts in aqueous solution; format: physicochemical
Source text: It is important for a drug product to be stable enough to avoid significant degradation when it is shipped and stored under commercially practical conditions. The inventors have discovered that Compound X in solution is preferably used and stored at a pH between 4 and 6, preferably between 4.0 and 5.5, for maximum stability in the presence of moisture. Optimal solution stability is achieved at a pH of about 4.0 to 5.5 Accordingly, the invention provides pharmaceutical compositions comprising Compound X at a pH between 4 and 6, preferably between 4.0 and 5.5, and more preferably at a pH of about 5±0.5 or at pH of 5±0.2. Suitable compositions comprise Compound X in an aqueous solution, such as a dextrose or saline solution, which may be isotonic, and may contain other substances such as stabilizers, antioxidants, buffers or pH modifiers, nutrients, and the like. In some of these embodiments, the desired pH is achieved by combining Compound X and a pH modifier suitable to achieve the desired pH in an aqueous solution. Suitable pH modifiers include but are not limited to sodium hydroxide, sodium carbonate, sodium bicarbonate, potassium carbonate, potassium hydroxide, amines such as TRIS (tris(hydroxymethyl)aminomethane), and amino acids such as arginine, lysine, histidine, and the like. Known monobactams, including aztreonam, have been formulated with arginine. […]

[3] = tested on: E. coli NB27273-CDY0033 (KPC2); assay: MIC by broth microdilution, isogenic E. coli expressing KPC2; format: cell-based; conditions: Escherichia coli, read-out: Inhibitory Concentration (MIC) Ec KPC2 Iso
Method: (§1) Bacterial isolates were cultivated from −70° C. frozen stocks by two consecutive overnight passages at 35° C. in ambient air on 5% blood agar (Remel, Lenexa, Kans.). Quality control and P. aeruginosa ATCC 27853) is from the American Type Culture Collection (ATCC; Rockville, Md.) and PAO1 was received from Dr. K. Poole.
(§2) Strain NB27273 (BW25113 pspB::Km^r) was obtained from the Keio transposon insertion collection. The strain has the pspB gene replaced by a kanamycin resistance marker (BW25113 pspB::Km^r). This strain was cured of the transposon in pspB via FLP recombinase using published methodology. The resulting strain, BW25113 pspB, was used as a host for multicopy vectors expressing key β-lactamases. Multicopy plasmids directing constitutive expression of β-lactamases were established as follows: Synthetic, codon optimized genes encoding E. coli KPC2 and SHV12-lactamases were made by DNA2.0 (Palo Alto, Calif.). Each of the synthetic fragments were designed to contain NotI and NcoI restriction sites at their termini, allowing ligation into a NotI/NcoI digested pET28a(+) derivative for protein expression. […]

E. coli strain 25922 = assay: MIC by broth microdilution, E. coli strain 25922; format: cell-based; conditions: Escherichia coli, salt: none, read-out: Inhibitory Concentration (MIC) Ec 25922
Method: as §1
Minimal Inhibitory Concentrations (MICs) were determined by the broth microdilution method in accordance with Clinical and Laboratories Institute (CLSI) guidelines. In brief, fresh overnight bacterial cultures were suspended in sterile saline, and adjusted to a 0.5 McFarland turbidity standard. Bacterial suspensions were then diluted in cation adjusted Mueller-Hinton Broth (MHB II; BBL) to yield a final inoculum of approximately 5×10^5 colony-forming units (CFU)/mL. A master plate of antibiotics was prepared at a concentration equivalent to hundred-fold the highest desired final concentration in 100% dimethyl sulfoxide (DMSO). […] The assay plates were read using a microtiter plate reader (Molecular Devices) at 600 nm as well as by visual observation with a reading mirror. The lowest concentration of the compound that prevented visible growth was recorded as the MIC. Performance of the assay was monitored by testing aztreonam against laboratory quality control strains in accordance with guidelines of the CLSI.

Photochemical stability = format: physicochemical
Method: Compound X (500 mg) and L-arginine (332.5 mg) are combined in a vial. Saccharose (crystalline, pyrogen-free sucrose: 1000 mg) is added along with water suitable for injection (8.00 mL). The pH of the solution is adjusted, if necessary, using 1.0N HCl or 1.0N NaOH to arrive at a pH of 5.0±0.5, preferably a pH of 5.0±0.2. This provides a solution containing about 62.5 mg/mL of Compound X as an arginine salt. This solution can be filtered if necessary, and can be lyophilized to provide a white or off-white solid (lyophilizate). The lyophilized solid can be reconstituted with sterile water or a pharmaceutically acceptable aqueous carrier such as isotonic saline or dextrose to provide a solution suitable for intravenous administration. The lyophilizate should be stored in a container that excludes light to protect the lyophilizate from photodegradation. This process can be scaled up or down to provide unit dosages for storage and distribution, or bulk material that can be further processed as desired.
In one embodiment of the invention, Compound X is packaged in a container that substantially reduces exposure to light, preferably in an atmosphere at a relative humidity of 25-50% humidity and more preferably at a relative humidity of 30-40% or 30-45%.

[4] = tested on: E. coli NB27273-CDY0026 (parent); assay: MIC by broth microdilution, isogenic E. coli parent strain; format: cell-based; conditions: Escherichia coli, read-out: Strain 1 MIC
Method: as §1, §2

Which results are given for `N=C(N)NCCC[C@H](N)C(=O)O.N=C(N)NCCC[C@H](N)C(=O)O.Nc1nc(/C(=N/OC2(C(=O)O)CC2)C(=O)N[C@@H]2C(=O)N(S(=O)(=O)O)[C@@H]2CN2CCOC2=O)cs1` [arginine salt]?
purity by HPLC ([1]; after 3 weeks at 40° C.): 95.1%; purity by HPLC ([1]; after 6 weeks at 25° C.): 96.3%; purity by HPLC ([1]; after 6 weeks at 40° C.): 94.2%; purity by HPLC ([1]; initially): 97.3%; stability of salts ([2]; salts made with 1.0 or 2.0 equiv. base, lyophilized, for aqueous media for intravenous use): particularly stable

Which results are given for `Nc1nc(/C(=N/OC2(C(=O)O)CC2)C(=O)N[C@@H]2C(=O)N(S(=O)(=O)O)[C@@H]2CN2CCOC2=O)cs1` [Compound X, 1-(((Z)-(1-(2-aminothiazol-4-yl)-2-oxo-2-(((3S,4R)-2-oxo-4-((2-oxooxazolidin-3-yl)methyl)-1-sulfoazetidin-3-yl)amino)ethylidene)amino)oxy)cyclopropanecarboxylic acid]?
MIC [3]: 125 µg/mL (≈ 241 µM); MIC (E. coli strain 25922): 250 µg/mL; hydrolytic stability in water ([2]; in solution, before addition of arginine or other base): subject to hydrolytic degradation in water in the absence of a base or outside the pH range of 4-6; photochemical stability (Photochemical stability): degrade photochemically

Which MIC [4] does the source give for `C[C@H]1[C@H](NC(=O)/C(=N\OC(C)(C)C(=O)O)c2csc(N)n2)C(=O)N1S(=O)(=O)O` [compound 1] here?
Its MIC is 0.125 µg/mL (≈ 0.287 µM).
